Laboratory results as given in PubChem BioAssay (NCI).
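Following 48 hours of exposure in 96-well plates, responses at five concentrations were used to interpolate endpoints linearly. GI50 = concentration required for 50% inhibition of growth. At the TGI there is no net growth.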

Tests used:
Test in all cases: DTP human tumour cell line panel, 48 h
OVCAR-3 ovarian = test system: OVCAR-3 ovarian
SR leukemia = test system: SR leukemia
U251 CNS = test system: U251 CNS
786-0 renal = test system: 786-0 renal
NCI-H460 lung = test system: NCI-H460 lung
M14 melanoma = test system: M14 melanoma
A498 renal = test system: A498 renal
HS 578T breast = test system: HS 578T breast
RPMI-8226 leukemia = test system: RPMI-8226 leukemia
UO-31 renal = test system: UO-31 renal

Row | Compound | GI50 (OVCAR-3 ovarian) | TGI (OVCAR-3 ovarian) | GI50 (SR leukemia) | TGI (SR leukemia) | GI50 (U251 CNS) | TGI (U251 CNS) | GI50 (786-0 renal) | TGI (786-0 renal) | GI50 (NCI-H460 lung) | TGI (NCI-H460 lung) | GI50 (M14 melanoma) | TGI (M14 melanoma) | GI50 (A498 renal) | TGI (A498 renal) | GI50 (HS 578T breast) | TGI (HS 578T breast) | GI50 (RPMI-8226 leukemia) | TGI (RPMI-8226 leukemia) | GI50 (UO-31 renal) | TGI (UO-31 renal)
1 | CN1C(NC(=O)c2ccc(Cl)nc2)=NS(=O)(=O)c2cc(Cl)ccc21 | > 100000 nM | > 100 µM | > 100000 nM | > 100 µM | > 100000 nM | > 100 µM | > 100000 nM | > 100 µM | > 100000 nM | > 100 µM | > 100 µM | > 100 µM | > 100000 nM | > 100 µM | > 100000 nM | > 100 µM | > 100000 nM | > 100 µM | > 100000 nM | > 100 µM
2 | CC(C)CSc1nc(Nc2ccccc2)c(C#N)c(-c2ccc(F)cc2)n1 | 1110 nM | 4.22 µM | 976 nM | 14 µM | 652 nM | 2.78 µM | 1900 nM | 5.19 µM | 806 nM | 12.1 µM | 6 µM | 21 µM | 1190 nM | 6.13 µM | 1600 nM | 11 µM | 5490 nM | > 100 µM | 2040 nM | 22.1 µM
3 | COc1cc([C@@H]2c3cc4c(cc3C(O[C@@H]3O[C@@H]5CO[C@@H](c6cccs6)OC5[C@H](O)[C@H]3O)C3COC(=O)[C@@H]32)OCO4)cc(OC)c1O (stereo not given in full) | 248 nM | 1.19 µM | < 5 nM | 0.0249 µM | 25.6 nM | 1.37 µM | 33.6 nM | 0.216 µM | < 5 nM | 0.278 µM | 0.0732 µM | 0.888 µM | 63.5 nM | 0.551 µM | 241 nM | 5.03 µM | 29.8 nM | 1.28 µM | 179 nM | 1.14 µM
4 | Cn1cc(C2=C(c3cn(CCCN=C(N)N)c4ccccc34)C(=O)NC2=O)c2ccccc21 | > 25000 nM | > 25 µM | 7220 nM | > 25 µM | > 25000 nM | > 25 µM | > 25000 nM | > 25 µM | > 25000 nM | > 25 µM | > 25 µM | > 25 µM | > 25000 nM | > 25 µM | > 25000 nM | > 25 µM | > 25000 nM | > 25 µM | > 25000 nM | > 25 µM
5 | C=C1C(=O)O[C@H]2[C@H]1CC/C(COC(=O)/C=C\C(=O)NCc1ccc(Cn3c(=O)sn(-c4ccc(C#N)cc4)c3=O)cc1)=C\CC[C@@]1(C)O[C@@H]21 | 306 nM | 0.953 µM | 292 nM | 50 µM | 759 nM | 1.62 µM | 727 nM | 1.52 µM | 844 nM | 1.83 µM | 0.699 µM | 1.66 µM | 769 nM | 1.55 µM | 987 nM | 2.79 µM | 443 nM | 2.59 µM | 468 nM | 1.07 µM
6 | COc1ccc(C(=O)/C=C/c2cccnc2Nc2cc(OC)c(OC)c(OC)c2)cc1 | 617 nM | 4.72 µM | 94.9 nM | 2.43 µM | 926 nM | 7 µM | 1220 nM | 2.96 µM | 1840 nM | 8.57 µM | 2.55 µM | 11.9 µM | 1800 nM | 13.1 µM | 5310 nM | 38.6 µM | 885 nM | 4.71 µM | 1170 nM | 3.04 µM
7 | CN(C)C(=S)SN(C)C(=O)Nc1ccccc1 |  | 41.2 µM |  | 72.3 µM |  | > 93.8 µM |  | > 74.7 µM |  | > 53.7 µM |  | 47.9 µM |  | > 33.8 µM |  | > 100 µM |  | > 100 µM |  | > 94.7 µM
8 | COc1ccc(-n2cc(-c3cc(OC)c(OC)c(OC)c3)[nH]c2=S)cc1OC | > 100000 nM | > 100 µM | 2570 nM | 8.76 µM | > 100000 nM | > 100 µM | > 100000 nM | > 100 µM | > 100000 nM | > 100 µM | > 100 µM | > 100 µM | > 100000 nM | > 100 µM | > 100000 nM | > 100 µM | > 100000 nM | > 100 µM | > 100000 nM | > 100 µM
9 | COc1ccc(-c2nc(-c3nc4ccc(C)cc4[nH]3)c3ccccn23)cc1 | 2990 nM | 10.2 µM | 2770 nM | > 100 µM | 3270 nM | > 100 µM | 3670 nM | > 100 µM | 2280 nM | 6.11 µM | 3.15 µM | 8.6 µM | 2470 nM | 9.65 µM | 2170 nM | 6.05 µM | 1470 nM | 3.93 µM | 1670 nM | 6.09 µM
10 | Cn1cc(C2=C(c3cn(C)c4c(N)cccc34)C(=O)NC2=O)c2ccccc21 | 507 nM | 1.45 µM | 407 nM | > 25 µM | 1190 nM | > 19.2 µM | 2000 nM | > 25 µM | 1080 nM | > 25 µM | 2.15 µM | > 25 µM | 895 nM | 4.29 µM | 618 nM | 19 µM | 2440 nM | 12.5 µM | 1100 nM | 10.5 µM
11 | N#C/C(C(=S)Nc1ccccc1)=C1/NN=C2c3ccccc3C(=O)NN21 | 21200 nM | 52.7 µM | 19500 nM | > 100 µM | 32100 nM | > 100 µM | 38000 nM | > 100 µM | 26300 nM | 73.2 µM | 19.3 µM | 40.6 µM | 21300 nM | 53.1 µM | 22700 nM | 57.2 µM | 32300 nM | > 100 µM | 33400 nM | > 100 µM
